In turn, `*C(=O)c1ccc(C(C)(CC)c2ccc(C(=O)N3CCN(*)CC3)cc2)cc1` (repeat unit) returned a glass transition temperature of 232.00 °C.
In turn, `*C(=O)c1ccc(Oc2ccc(N3C(=O)c4ccc(*)cc4C3=O)cc2)cc1` (repeat unit) had a glass transition temperature of 297.00 °C.
Then `*C(=O)c1ccc(Oc2ccc(S(=O)(=O)c3ccc(Oc4ccc(C(=O)c5ccc6c(c5)C(=O)N(c5ccc(Oc7ccc(N8C(=O)c9ccc(*)cc9C8=O)cc7)cc5)C6=O)cc4)cc3)cc2)cc1` (repeat unit), with 241.00 °C.
Then `*C(=O)c1ccc2c(c1)C(=O)N(c1ccc(Oc3ccc(Oc4ccc(N5C(=O)c6ccc(*)cc6C5=O)cc4C(F)(F)F)cc3)cc1)C2=O` (repeat unit), with 237.10 °C; and `*C(=O)c1ccc2c(c1)C(=O)N(c1ccc(Oc3cccc(-c4cc(-c5ccccc5)cc(-c5cccc(Oc6ccc(N7C(=O)c8ccc(*)cc8C7=O)cc6)c5)n4)c3)cc1)C2=O` (repeat unit), with 260.00 °C.
With `*C(=O)c1ccc2c(c1)C(=O)N(c1ccc(Oc3cccc(N4C(=O)c5ccc(*)cc5C4=O)c3)cc1)C2=O` (repeat unit), the glass transition temperature was found to be 280.50 °C.
Then `*C(=O)c1cccc(C(=O)c2ccc3c(c2)C(=O)N(c2ccc(Oc4ccc(S(=O)(=O)c5ccc(Oc6ccc(N7C(=O)c8ccc(*)cc8C7=O)cc6)cc5)cc4)cc2)C3=O)c1` (repeat unit), with 249.00 °C; and `*CCCCOC(=O)c1ccc(C(C)(C)c2ccc(C(=O)O*)cc2)cc1` (repeat unit), with 44.00 °C; and `*CCCCOC(=O)c1ccc([Si](C)(C)c2ccc(C(=O)O*)cc2)cc1` (repeat unit), with 42.00 °C.
With `*CCOC(=O)c1ccc(C(C)(CC)c2ccc(C(=O)O*)cc2)cc1` (repeat unit) the figure was 95.00 °C.
In the case of `*Nc1ccc(-c2ccc(NC(=O)c3ccc(NC(=O)c4ccc([Si](C)(C)c5ccc(C(=O)Nc6ccc(C(*)=O)cc6)cc5)cc4)cc3)cc2)cc1` (repeat unit), the glass transition temperature came to 320.00 °C.
In turn, `*Nc1ccc(C(c2ccc(NC(=O)c3ccc(-c4ccc(C(*)=O)c(C)c4)cc3C)cc2)(C(F)(F)F)C(F)(F)F)cc1` (repeat unit) returned a glass transition temperature of 289.00 °C.
With `*Nc1ccc(NC(=O)c2ccc(NC(=O)c3ccc([Si](C)(C)c4ccc(C(=O)Nc5ccc(C(*)=O)cc5)cc4)cc3)cc2)cc1` (repeat unit) the figure was 338.00 °C; with `*Nc1cccc(NC(=O)c2ccc(NC(=O)c3ccc([Si](C)(C)c4ccc(C(=O)Nc5ccc(C(*)=O)cc5)cc4)cc3)cc2)c1` (repeat unit), 303.00 °C.
With `*Oc1ccc(-c2ccc(OC(=O)c3cc(/N=N/c4ccc(OCC)cc4)ccc3-c3ccc(/N=N/c4ccc(OCC)cc4)cc3C(*)=O)cc2)cc1` (repeat unit), the glass transition temperature stood at 165.00 °C.
With `*Oc1ccc(/N=C/c2ccc(N(c3ccccc3)c3ccc(/C=N/c4ccc(*)cc4)cc3)cc2)cc1` (repeat unit) the figure was 162.00 °C; with `*Oc1ccc(C(=O)c2ccc(OC(=O)c3ccc(C(C)(C)c4ccc(C(*)=O)cc4)cc3)cc2)cc1` (repeat unit), 130.00 °C; with `*Oc1ccc(C(C)(C)c2ccc(OC(=O)c3ccc(C(C)(CC)c4ccc(C(*)=O)cc4)cc3)cc2)cc1` (repeat unit), 211.00 °C.
`*Oc1ccc(C(c2ccc(Oc3ccc(C(=O)c4ccc(C(C)(C)c5ccc(C(=O)c6ccc(*)cc6)cc5)cc4)cc3)cc2)(C(F)(F)F)C(F)(F)F)cc1` (repeat unit) returned a glass transition temperature of 179.00 °C.
With `*Oc1ccc(Cc2ccc(OC(=O)c3ccc(C(C)(C)c4ccc(C(*)=O)cc4)cc3)cc2)cc1` (repeat unit) the figure was 140.00 °C.
With `*Oc1ccc(N(CC)c2ccc(/C=C(\C#N)C(=O)NC3CCCCC3NC(=O)/C(C#N)=C/c3ccc(N(CC)c4ccc(*)cc4)cc3)cc2)cc1` (repeat unit) the figure was 235.00 °C; with `*Oc1ccc(NC(=O)c2ccc(-c3ccc(C(=O)Nc4ccc(Oc5ccc(C(C)(C)c6ccc(*)cc6)cc5)cc4)c(C)c3)cc2C)cc1` (repeat unit), 230.00 °C.
Then `*Oc1ccc(NC(=O)c2ccc([Si](C)(C)c3ccc(C(*)=O)cc3)cc2)cc1` (repeat unit), with 220.00 °C.
Regarding `*Oc1ccc(OC(=O)c2ccc([Si](C)(C)c3ccc(C(*)=O)cc3)cc2)cc1` (repeat unit), the glass transition temperature was found to be 176.00 °C.
For the compound `*Oc1cccc(Oc2ccc(NC(=O)c3ccc(-c4ccc(C(=O)Nc5ccc(*)cc5)c(C)c4)cc3C)cc2)c1` (repeat unit), the glass transition temperature stood at 213.00 °C.
For `*Sc1ccc(C(=O)c2ccc(C(C)(C)c3ccc(C(=O)c4ccc(*)cc4)cc3)cc2)cc1` (repeat unit), the glass transition temperature is 175.00 °C.
`*c1ccc(-c2cc(C(C)(C)C)c(Oc3ccc(-n4c(=O)c5cc6c(=O)n(*)c(=O)c6cc5c4=O)cc3)c(C(C)(C)C)c2)cc1` (repeat unit) gave a glass transition temperature of 398.50 °C.
As to `*c1ccc(-c2cc(C(C)(C)C)c(Oc3ccc(-n4c(=O)c5cc6c(=O)n(*)c(=O)c6cc5c4=O)cc3C(F)(F)F)c(C(C)(C)C)c2)cc1` (repeat unit), the glass transition temperature was 420.00 °C.
With `*c1ccc(-c2cc(CCCCCCCC)c(-c3ccc(-c4sc(*)cc4CCCCCCCC)cc3)s2)cn1` (repeat unit) the figure was 16.20 °C; with `*c1ccc(-c2ccc(-c3cc(CCCCCCCC)c(-c4ccc(-c5sc(*)cc5CCCCCCCC)cc4)s3)cc2)cc1` (repeat unit), 0.60 °C; with `*c1ccc(-c2cnc3ccc(Oc4ccc5ncc(*)nc5c4)cc3n2)cc1` (repeat unit), 306.00 °C.
With `*c1ccc(-c2nc3cc(-c4ccc5nc(-c6ccccc6)c(-c6ccc(-n7c(=O)c8cc9c(=O)n(*)c(=O)c9cc8c7=O)cc6)nc5c4)ccc3nc2-c2ccccc2)cc1` (repeat unit) the figure was 217.00 °C; with `*c1ccc(-c2nc3cc(-c4ccc5nc(-c6ccccc6)c(-c6ccc(N7C(=O)C8OC9C(=O)N(*)C(=O)C9C8C7=O)cc6)nc5c4)ccc3nc2-c2ccccc2)cc1` (repeat unit), 230.00 °C; with `*c1ccc(-c2nc3cc(-c4ccc5oc(*)nc5c4)ccc3o2)cc1` (repeat unit), 430.00 °C.
`*c1ccc(-c2nc3cc(Oc4ccc5nc(-c6ccccc6)c(-c6ccc(-n7c(=O)c8cc9c(=O)n(*)c(=O)c9cc8c7=O)cc6)nc5c4)ccc3nc2-c2ccccc2)cc1` (repeat unit) yielded a glass transition temperature of 274.00 °C.
In turn, `*c1ccc(-c2nc3cc4nc(-c5ccccc5)c(*)nc4cc3nc2-c2ccccc2)cc1` (repeat unit) displayed a glass transition temperature of 395.00 °C.
`*c1ccc(-c2nc3ccccc3o2)c(*)c1` (repeat unit) registered a glass transition temperature of 229.00 °C.
With `*c1ccc(-c2nnc(*)o2)c(OCCCCC)c1` (repeat unit) the figure was 205.00 °C; with `*c1ccc(-c2sc(-c3cc(CCCC)c(*)s3)cc2CCCC)cc1` (repeat unit), 122.30 °C; with `*c1ccc(-c2sc(-c3cc(CCCCCCCCCCCC)c(*)s3)cc2CCCCCCCCCCCC)cc1` (repeat unit), 59.60 °C.
With `*c1ccc(-c2sc(-c3cc(SCCCCCCCCCCCC)c(*)s3)cc2SCCCCCCCCCCCC)cc1` (repeat unit) the figure was 65.40 °C; with `*c1ccc(-c2sc(-c3ccc(-c4cc(CCCCCCCC)c(*)s4)cc3)cc2CCCCCCCC)cc1` (repeat unit), -4.00 °C; with `*c1ccc(-c2sc(-c3ccc(-c4cc(CCCCCCCCCCCC)c(*)s4)cc3)cc2CCCCCCCCCCCC)cc1` (repeat unit), -19.20 °C.
The compound `*c1ccc(-c2sc(-c3ccc(-c4cc(SCCCCCCCC)c(*)s4)cc3)cc2SCCCCCCCC)cc1` (repeat unit) displayed a glass transition temperature of -38.80 °C.
Then `*c1ccc(-c2sc(-c3ccc(-n4c(=O)c5cc6c(=O)n(*)c(=O)c6cc5c4=O)cc3)c(-c3ccccc3)c2-c2ccccc2)cc1` (repeat unit), with 460.00 °C; and `*c1ccc(C(C#N)(C(=O)O)C(*)(C#N)C(=O)O)cc1` (repeat unit), with 108.00 °C; and `*c1ccc(C(C#N)(C(=O)OCCCC)C(*)(C#N)C(=O)OCCCC)cc1` (repeat unit), with 108.00 °C.
As for `*c1ccc(C(Cl)(Cl)C(*)Cl)cc1` (repeat unit), the glass transition temperature was determined as 160.00 °C.
With `*c1ccc(C(c2ccc(-c3nc4ccc(-c5ccc6nc(*)oc6c5)cc4o3)cc2)(C(F)(F)F)C(F)(F)F)cc1` (repeat unit) the figure was 345.00 °C; with `*c1ccc(C2(c3ccc(-c4nnc(*)o4)cc3)OC(=O)c3ccccc32)cc1` (repeat unit), 380.00 °C.
With `*c1ccc(N/C=N/c2ccc(S(*)(=O)=O)cc2)cc1` (repeat unit), the glass transition temperature was found to be 163.00 °C.
Consider `*c1ccc(NC(=O)c2ccc(NC(=O)c3ccc([Si](C)(C)c4ccc(C(=O)Nc5ccc(C(=O)Nc6ccc(-c7sc(*)c(-c8ccccc8)c7-c7ccccc7)cc6)cc5)cc4)cc3)cc2)cc1` (repeat unit), for which the glass transition temperature stood at 337.00 °C.
With `*c1ccc(OC(=O)c2ccc([Si](C)(C)c3ccc(C(=O)Oc4ccc(C5(*)OC(=O)c6ccccc65)cc4)cc3)cc2)cc1` (repeat unit) the figure was 214.00 °C.
Turning to `*c1ccc(OC(=O)c2ccc([Si](C)(C)c3ccc(C(=O)Oc4ccc(C5(*)c6ccccc6C(=O)N5c5ccccc5)cc4)cc3)cc2)cc1` (repeat unit), the glass transition temperature came out at 255.00 °C.
Then `*c1ccc([Si](c2ccccc2)(c2ccccc2)c2ccc(-c3nnc(-c4ccc(-c5nnc(*)o5)c5ccccc45)o3)cc2)cc1` (repeat unit), with 273.00 °C; and `*c1ccc2oc(-c3ccc(C(c4ccc(-c5nc6cc(C(*)(C(F)(F)F)C(F)(F)F)ccc6o5)cc4)(C(F)(F)F)C(F)(F)F)cc3)nc2c1` (repeat unit), with 336.00 °C.

The values above are taken from the PolyMetriX glass transition set.
